Bounds are passed on as bounds.

The assay deals with Endothelial lipase (EL) (Homo sapiens (Human), UniProt Q9Y5X9). In words: Endothelial lipase (EL) activity assay with fluorescent substrate A10070 in DMPG vesicles. The format is biochemical. Here is the method: Endothelial lipase activity was measured using a fluorescent substrate, A10070, (Invitrogen, CA) doped into an artificial vesicle containing DMPG (Avanti Polar Lipids) as the excipient. Vesicles were prepared by combining 285 μL of 1 mM DMPG in a 1:1 mixture of MeOH and CHCl3 with 15 μL of 1 mM A10070 in a 1:1 mixture of MeOH and CHCl3. The mixture was dried under nitrogen and resuspended in 150 μL of 50 mM HEPES pH 8.0 buffer containing 100 mM NaCl and 0.2 mM EDTA. The sample was allowed to sit at rt for 15 min and then was sonicated 3×4 mins on ice with a Branson Sonicator using duty cycle 1. This preparation provides vesicles with a mole fraction of 0.05 for the FRET substrate.
Sequence of Endothelial lipase (EL) (Q9Y5X9 21-500): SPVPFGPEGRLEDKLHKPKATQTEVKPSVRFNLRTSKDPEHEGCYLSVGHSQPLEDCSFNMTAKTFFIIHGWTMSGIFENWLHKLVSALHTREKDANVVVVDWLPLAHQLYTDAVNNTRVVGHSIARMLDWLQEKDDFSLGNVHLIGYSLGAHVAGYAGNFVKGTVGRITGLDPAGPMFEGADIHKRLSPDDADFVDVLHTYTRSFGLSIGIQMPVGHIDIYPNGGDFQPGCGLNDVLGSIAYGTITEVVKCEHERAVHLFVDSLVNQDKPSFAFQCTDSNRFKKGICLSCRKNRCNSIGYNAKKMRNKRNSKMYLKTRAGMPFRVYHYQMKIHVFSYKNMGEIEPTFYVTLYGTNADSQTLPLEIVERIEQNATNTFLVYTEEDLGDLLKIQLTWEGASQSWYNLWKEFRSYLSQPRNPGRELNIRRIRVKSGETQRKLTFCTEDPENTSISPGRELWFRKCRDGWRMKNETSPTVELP
The enzymatic assay was measured using white, opaque 96-well half area plates. Each well contained 60 μL of assay buffer (50 mM HEPES pH 8.0, 50 mM NaCl and 1 mM CaCl2) and 2 ul of a DMSO solution containing compound of interest. Conditioned media obtained from HT-1080 cells, which were transformed by RAGE technology (Athersys) to overexpress endogenous EL, was added and the reaction was allowed to incubate for 20 min at 37° C. with gentle agitation. The reaction was started by the addition of 20 μL of a 1:4 dilution of vesicles. The final total reaction volume was 100 μL. The reaction rates were measured on a Gemini plate reader with an excitation wavelength of 488 nm and an emission of 530 nm. Readings were taken every 20 seconds for 10 min with agitation between each reading. The slope of the linear portion of the readout was used to calculate the rate of the reaction.
The compound `O=C(c1nnc(CC2CCNC2=O)o1)c1nc2ccc(-c3ccccc3)cc2s1` (stereo not shown) [Example 1] had an IC50 of under 0.01 µM. Take `O=C(c1nnc(N2CCN(c3ccc(C(F)(F)F)cc3)CC2)o1)c1nc2ccc(-c3ccccc3)cc2s1` [Example 88, (6-Phenylbenzo[d]thiazol-2-yl)(5-(4-(4-(trifluoromethyl)phenyl)piperazin-1-yl)-1,3,4-oxadiazol-2-yl)methanone]: the IC50 turned out to be 0.494 µM. For the compound `O=C(c1nnc(N(Cc2nnc(C3CC3)o2)[C@H]2CCNC2=O)o1)c1nc2ccc(-c3ccccc3)cc2s1` [Example 85, (S)-3-(((5-Cyclopropyl-1,3,4-oxadiazol-2-yl)methyl)(5-(6-phenylbenzo[d]thiazole-2-carbonyl)-1,3,4-oxadiazol-2-yl)amino)pyrrolidin-2-one], the midpoint of inhibition, the IC50, lay at 0.035 µM. The same measure for `NS(=O)(=O)c1ccc(-c2ccc3nc(C(=O)c4nnc(N[C@H]5CCNC5=O)o4)sc3c2)cc1` [Example 83, (S)-4-(2-(5-((2-oxopyrrolidin-3-yl)amino)-1,3,4-oxadiazole-2-carbonyl)benzo[d]thiazol-6-yl)benzenesulfonamide]: under 0.01 µM; for `O=C(c1nnc(CC2CCNC2=O)o1)c1nc2ccc(-c3ccccc3)cc2s1` (stereo not shown) [Example 3, 3-((5-(6-phenylbenzo[d]thiazole-2-carbonyl)-1,3,4-oxadiazol-2-yl)methyl)pyrrolidin-2-one]: under 0.01 µM. Under `CC(C)(C)OC(=O)N[C@H]1CC[C@H](c2nnc(C(=O)c3nc4ccc(-c5ccccc5)cc4s3)o2)CC1` [Example 16, tert-butyl ((1r,4r)-4-(5-(6-phenylbenzo[d]thiazole-2-carbonyl)-1,3,4-oxadiazol-2-yl)cyclohexyl)carbamate] stands 0.031 µM; under `CC(C)(C)CN1CCC(c2nnc(C(=O)c3nc4ccc(-c5ccccc5)cc4s3)o2)CC1` [Example 45, (5-(1-Neopentylpiperidin-4-yl)-1,3,4-oxadiazol-2-yl)(6-phenylbenzo[d]thiazol-2-yl)methanone], 0.014 µM; under `CC(C)(C)OC(=O)CNc1nnc(C(=O)c2nc3ccc(-c4ccccc4)cc3s2)o1` [Example 67, tert-butyl 2-((5-(6-phenylbenzo[d]thiazole-2-carbonyl)-1,3,4-oxadiazol-2-yl)amino)acetate], 0.13 µM. The compound `O=C(c1nnc(N[C@H](CCO)C(=O)O)o1)c1nc2ccc(-c3ccccc3)cc2s1` [Example 68, (R)-4-hydroxy-2-((5-(6-phenylbenzo[d]thiazole-2-carbonyl)-1,3,4-oxadiazol-2-yl)amino)butanoic acid] yielded an IC50 of 0.027 µM.

`O=C(Cc1nnc(C(=O)c2nc3ccc(-c4ccccc4)cc3s2)o1)NC1CC1` [Example 50, N-Cyclopropyl-2-(5-(6-phenylbenzo[d]thiazole-2-carbonyl)-1,3,4-oxadiazol-2-yl)acetamide] registered an IC50 of under 0.01 µM. With `O=C(c1nnc(CC2NC(=O)N(c3ccccc3)C2=O)o1)c1nc2ccc(-c3ccccc3)cc2s1` (stereo not shown) [Example 41, 3-phenyl-5-((5-(6-phenylbenzo[d]thiazole-2-carbonyl)-1,3,4-oxadiazol-2-yl)methyl)-imidazol-idine-2,4-dione], the midpoint of inhibition, the IC50, lay at 0.016 µM. Under `O=C(c1nnc(C2CCN(Cc3ccc(F)cc3)CC2)o1)c1nc2ccc(-c3ccccc3)cc2s1` [Example 17, (5-(1-(4-fluorobenzyl)piperidin-4-yl)-1,3,4-oxadiazol-2-yl)(6-phenylbenzo[d]thiazol-2-yl)methanone] stands under 0.01 µM. On to `NS(=O)(=O)Cc1nnc(C(=O)c2nc3c(F)cc(-c4ccccc4)cc3s2)o1` [Example 12, (5-(4-fluoro-6-phenylbenzo[d]thiazole-2-carbonyl)-1,3,4-oxadiazol-2-yl)methanesulfonamide], for which the IC50 was under 0.01 µM. For the compound `O=C(c1nnc(N2CC[C@@H](c3ccccc3)C2)o1)c1nc2ccc(-c3ccccc3)cc2s1` [Example 79, (S)-(6-phenylbenzo[d]thiazol-2-yl)(5-(3-phenylpyrrolidin-1-yl)-1,3,4-oxadiazol-2-yl)methanone], the IC50 stood at 0.31 µM. Regarding `O=C(c1nnc(C2CCS(=O)(=O)N2)o1)c1nc2ccc(-c3ccccc3)cc2s1` (stereo not shown) [Example 11, (5-(1,1-dioxidoisothiazolidin-3-yl)-1,3,4-oxadiazol-2-yl)(6-phenylbenzo[d]thiazol-2-yl)methanone], the IC50 was under 0.01 µM. Consider `COc1nc(-c2nnc(C(=O)c3nc4ccc(-c5ccccc5)cc4s3)o2)c(O)c(=O)[nH]1` [Example 47, 5-Hydroxy-2-methoxy-6-(5-(6-phenylbenzo[d]thiazole-2-carbonyl)-1,3,4-oxadiazol-2-yl)pyrimidin-4(3H)-one], for which the IC50 was determined as 0.019 µM.

As usually defined, the IC50 is the concentration needed to halve the response being measured. A lower IC50 goes with higher potency.

(Values after US9169240B2, “Ketone linked benzothiazole inhibitors of endothelial lipase” (BRISTOL-MYERS SQUIBB COMPANY, priority 2012, dated 2015).)
